Test results: ChEMBL document CHEMBL4673364, “Synthesis and cytotoxic activity of new 7-acetoxy-12-amino-14-deoxy andrographolide analogues” (Bioorg Med Chem Lett, 2021)

Key:
A549 = assay: Cytotoxicity against human A549 cells assessed as reduction in cell viability by SRB assay; format: functional, cell-based
KB [1] = assay: Cytotoxicity against human KB cells assessed as reduction in cell viability by SRB assay; format: functional, cell-based
[2] = Cytotoxicity against rat ASK cells assessed as reduction in cell viability by SRB assay; format: functional, cell-based
[3] = Cytotoxicity against human K213 cells assessed as reduction in cell viability by SRB assay; format: functional, cell-based
[4] = Potency index, ratio of andrographolide IC50 to test compound IC50 for cytotoxicity against […] cells; format: functional
[5] = Cytotoxicity against human P388 cells assessed as reduction in cell viability by SRB assay; format: functional, cell-based
MCF7 [6] = assay: Cytotoxicity against human MCF7 cells assessed as reduction in cell viability by SRB assay; format: functional, cell-based
[7] = Cytotoxicity against human K055 cells assessed as reduction in cell viability by SRB assay; format: functional, cell-based
HT-29 = assay: Cytotoxicity against human HT-29 cells assessed as reduction in cell viability by SRB assay; format: functional, cell-based
KB [8] = assay: Potency index, ratio of andrographolide IC50 to test compound IC50 for cytotoxicity against human KB cells; format: functional
[9] = Potency index, ratio of andrographolide IC50 to test compound IC50 for cytotoxicity against human K055 cells; format: functional
[10] = Potency index, ratio of andrographolide IC50 to test compound IC50 for cytotoxicity against human K213 cells; format: functional
MCF7 [11] = assay: Potency index, ratio of andrographolide IC50 to test compound IC50 for cytotoxicity against human MCF7 cells; format: functional

Compound	IC50 (A549) [µM]	IC50 (KB [1]) [µM]	IC50 [2] [µM]	IC50 [3] [µM]	Ratio IC50 [4]	IC50 [5] [µM]	IC50 (MCF7 [6]) [µM]	IC50 [7] [µM]	IC50 (HT-29) [µM]	Ratio IC50 (KB [8])	Ratio IC50 [9]	Ratio IC50 [10]	Ratio IC50 (MCF7 [11])
C=C1[C@@H](OC(C)=O)C[C@@H]2[C@](C)(CO[Si](C)(C)C(C)(C)C)[C@H](OC(C)=O)CC[C@@]2(C)[C@@H]1C[C@@H](Nc1ccccc1)C1=CCOC1=O	4.5	5.71	4.96	5.7	9	4.4	4.84	4.43	4.05	–	–	–	–
C=C1[C@@H](OC(C)=O)C[C@@H]2[C@](C)(CO[Si](C)(C)C(C)(C)C)[C@H](OC(C)=O)CC[C@@]2(C)[C@@H]1C/C=C1/C(=O)OC[C@H]1OC(C)=O	4.64	5.02	4.11	4.81	–	0.43	4.54	4.43	4.94	8	8	8	–
C=C1[C@@H](OC(C)=O)C[C@@H]2[C@](C)(CO[Si](C)(C)C(C)(C)C)[C@H](OC(C)=O)CC[C@@]2(C)[C@@H]1C[C@@H](Nc1ccc(F)cc1)C1=CCOC1=O	4.55	5.09	4.63	5.25	–	4	4.34	5.43	4.94	–	–	–	7
C=C1[C@@H](OC(C)=O)C[C@@H]2[C@](C)(CO[Si](C)(C)C(C)(C)C)[C@H](OC(C)=O)CC[C@@]2(C)[C@@H]1C[C@@H](Nc1ccc(Br)cc1)C1=CCOC1=O	4.15	5.23	4.84	5.44	–	4.19	3.92	5.34	4.59	–	–	–	7
C=C1[C@@H](OC(C)=O)C[C@@H]2[C@](C)(CO[Si](C)(C)C(C)(C)C)[C@H](OC(C)=O)CC[C@@]2(C)[C@@H]1C[C@@H](Nc1cccc(F)c1)C1=CCOC1=O	4.06	4.56	3.7	5.28	–	2.81	3.82	5.41	4.52	–	–	–	7
